In the supplement of paper PMC10290057:
Where a name gives a salt, the structure may show the parent alone.

What follows are compounds tested on HCT116 (assay: efficacy (fitted maximal change in viability relative to DMSO control); higher = less cytotoxic (negative = loss of viability)). Conditions: 48 h.
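Also: Luminescence-based viability readout, five doses per compound, normalized against on-plate DMSO and empty-well controls, followed by dose-response curve fitting for every drug.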

Compound | efficacy [%]
C[C@H]1COC2=C3N1\C=C(C(O)=O)/C(=O)C3=CC(=C2N4CCN(C)CC4)F [Levofloxacin] | -12.3
C[C@@H]\1CC(=O)N\N=C1C2=CC=C(NN=C(C#N)C#N)C=C2 [Levosimendan] | -64.6
Clc1cccc(C(c2ccc3nc[nH]c3c2)n2ccnc2)c1 (stereo unspecified) [Liarozole] | -23
CC1(C)Cc2c(-c3ccccc3)c(-c3ccc(Cl)cc3)c(CC(=O)O)n2C1 [Licofelone] | -36.6
OCc1ccc(-c2nn(Cc3ccccc3)c3ccccc23)o1 [Lificiguat] | -57.1
CC#CCn1c(N2CCC[C@@H](N)C2)nc2c1c(=O)n(Cc1nc(C)c3ccccc3n1)c(=O)n2C [Linagliptin] | -31.7
O=C1N(c2ccccc2)c2ccccc2C1(Cc1ccncc1)Cc1ccncc1 [Linopirdine] | -12.1
C[S+](=O)([O-])Oc1ccc2c(NC(N)=O)c(C(=O)c3ccc(Cl)cc3Cl)oc2c1 [Lirimilast] | -17.7
CCN1\C=C(C(O)=O)/C(=O)C2=C1C(=C(N3CCNC(C)C3)C(=C2)F)F (stereo unspecified) [Lomefloxacin hydrochloride] | -18.8
O=C(O)c1nn(Cc2ccc(Cl)cc2Cl)c2ccccc12 [Lonidamine] | -7.79
Cc1c(F)cc(C(=O)NC2CC2)cc1-c1ccc(C(=O)NCC(C)(C)C)cn1 [Losmapimod] | -18.8
CCOC(=O)O[C@@]1(CC[C@H]2[C@@H]3CCC/4=C/C(=O)/C=C\[C@]4(C)[C@H]3[C@@H](O)C[C@]12C)C(=O)OCCl [Loteprednol etabonate] | -16
CC[C@H](C)C(=O)O[C@H]1C[C@@H](C)\C=C2\C=C/[C@H](C)[C@H](CC[C@@H]3C[C@@H](O)CC(=O)O3)[C@@H]12 [Lovastatin] | -14.4
CCCCC(F)(F)[C@@]1(O)CC[C@H]2[C@@H](CC(=O)[C@@H]2CCCCCCC(=O)O)O1 [Lubiprostone] | -6.29
CCCCN(CCCC)CC(O)c1cc(Cl)cc2c1-c1ccc(Cl)cc1/C2=C/c1ccc(Cl)cc1 (stereo unspecified) [Lumefantrine] | -26.5
C=C(C)[C@@H]1CC[C@]2(C)CC[C@]3(C)[C@H](CC[C@@H]4[C@@]5(C)CC[C@H](O)C(C)(C)[C@@H]5CC[C@]43C)[C@@H]12 [Lupeol] | -15.6
CN1\C(=C([O-])/C2=CC=CC=C2[S+]1([O-])=O)C(=O)NC3=NC=C(C)S3 [MELOXICAM SODIUM] | 9
C1Cc2[nH]nc(-c3nn[nH]n3)c2C1 [MK-0354] | -7.85
O=C1O[C@]2(CC[C@@H](C(=O)Nc3ccn(-c4ccccc4F)n3)CC2)c2cnccc21 [MK-0557] | -11.9
O=C(O)CCC1CCC(c2cc(F)ccc2F)([S+](=O)([O-])c2ccc(Cl)cc2)CC1 (stereo unspecified) [MK-0752] | -19
COc1ccc(CC2SC(=O)NC2=O)cc1C(=O)NCc1ccc(C(F)(F)F)cc1 (stereo unspecified) [MK-767] | -17.2
CO[C@@H]1COCC[C@@H]1N[C@@H]1CC[C@@](C(=O)N2CCc3ncc(C(F)(F)F)cc3C2)(C(C)C)C1 [MK-0812] | -11.1
COc1ccc(CNC(=O)c2cc(-c3cncc(Cl)c3)cnc2-c2ccccn2)nc1OC [MK-1064] | 12.4
Cn1c(-c2ccccc2C(F)(F)F)nnc1C12CCC(c3noc(C4CC(F)(F)C4)n3)(CC1)CC2 [MK-4101] | -26.2
O=C(O)Cn1nnc(-c2cc(N3CCC(Oc4cc(F)ccc4Br)CC3)no2)n1 [MK-8245] | -19.9
CN1CCN(C(=O)c2ccc(-c3ccc4c(C=O)c(O)ccc4c3)s2)CC1 [MKC-3946] | -13.9

Compound | efficacy [%]
O=[S+]([O-])(c1cccc2c(I)cccc12)N1CCCNCC1 [ML-7] | -56.9
O=C(O)c1ccccc1-c1ccc(/C=c2\sc3nc4cc(Br)cnc4n3c2=O)o1 [ML-119] | -9.89
COC1=CC=C(C=C1)C2CC(=N/N2C3=CC=C(C=C3)[S+](N)([O-])=O)\C4=CC=CC=C4 (stereo unspecified) [ML-141] | -60
[2H]C([2H])(Nc1nc(-c2ccccc2C([2H])(C([2H])([2H])[2H])C([2H])([2H])[2H])ncc1C)c1ccc(-n2ccnn2)cc1 [ML-323] | -36.2
COc1ccc(-c2cnc3c(-c4cccc5ncccc45)cnn3c2)cc1 [ML-347] | 9.54
COc1c(Cl)cc2c([nH]c3cnccc32)c1NC(=O)c1cccnc1C [MLN-120B] | -95.3
CCCN[S+](=O)([O-])Nc1ncnc(OCCOc2ncc(Br)cn2)c1-c1ccc(Br)cc1 [Macitentan] | -63.7
CC(C)OC(=O)C(C(=O)OC(C)C)=C1S\C=C/S1 [Malotilate] | -26.9
COC(=O)C1=C(C)NC(C)=C(C(=O)OCCN2CCN(C(c3ccccc3)c3ccccc3)CC2)C1c1cccc([N+](=O)[O-])c1.Cl.Cl (stereo unspecified) [Manidipine] | -75
OC[C@@H](O)[C@@H](O)[C@H](O)[C@@H](O)CO [Mannitol] | 13
Cc1nnc(C(C)C)n1C1CC2CCC(C1)N2CC[C@H](NC(=O)C1CCC(F)(F)CC1)c1ccccc1 (stereo partly specified) [Maraviroc] | -6.73
COC(=O)Nc1nc2cc(C(=O)c3ccccc3)ccc2[nH]1 [Mebendazole] | -65.1
CCOC(=O)c1c(C)n(C)c2ccc(O)cc12 [Mecarbinate] | -21.6
C[C@H]1C[C@@H]2[C@H](CC[C@@]3(C)[C@H]2CC[C@]3(OC(C)=O)C(C)=O)[C@@]\4(C)CCC(=O)\C=C14 [Medroxyprogesterone acetate] | -13.3
CC(=O)O[C@@]1(CC[C@H]2[C@@H]3\C=C(C)/C4=C/C(=O)CC[C@]4(C)[C@H]3CC[C@]12C)C(C)=O [Megestrol acetate] | -13.4
COc1ccc2[nH]cc(CCNC(C)=O)c2c1 [Melatonin] | -10.4
N[C@@H](Cc1ccc(N(CCCl)CCCl)cc1)C(=O)O [Melphalan] | -56.5
CC1=CC(=O)c2ccccc2C1=O [Menadione] | -10.7
O=S(=O)([O-])CCS [Mesna] | -8.13
C#C[C@]1(O)CC[C@H]2[C@@H]3CCc4cc(OC)ccc4[C@H]3CC[C@@]21C [Mestranol] | -33.5
CSCC[C@@H](NC(=O)[C@@H](Cc1ccccc1)NC(=O)CNC(=O)CNC(=O)[C@@H](N)Cc1ccc(O)cc1)C(=O)O [Metenkephalin] | -81.4
CN(C)C(=N)NC(=N)N [Metformin] | -21.8
CN(C)[C@H]\1[C@@H]2[C@@H](O)[C@@H]\3C(=C)C4=C(C(=CC=C4)O)C(=O)C3=C(\O)[C@@]2(O)C(=O)\C(=C1O)C(N)=O [Methacycline hydrochloride] | -9.07
C[C@](N)(Cc1ccc(O)c(O)c1)C(=O)O [Methyldopa] | -16.9
CN(C)c1ccc2nc3ccc(N(C)C)cc3[s+]c2c1.[Cl-] [Methylene blue] | -96.6
C[C@H]1C[C@H]2[C@@H]3CC[C@](O)(C(=O)CO)[C@@]3(C)C[C@H](O)[C@@H]2[C@@]\4(C)/C=C\C(=O)\C=C14 [Methylprednisolone] | 20

Compound | efficacy [%]
CC#C[C@]1(O)CC[C@H]2[C@@H]/3CCC/4=C/C(=O)CCC4=C3[C@H](C[C@]12C)C5=CC=C(C=C5)N(C)C [Mifepristone] | -73.4
C\C1=C(\C=C(\C#N)C(=O)N1)C2=CC=NC=C2 [Milrinone] | -8.82
O=C(c1ccc(N[S+](=O)([O-])c2cccc3cccnc23)cc1)N1CCN(CC2CC2)CC1 [Mitapivat] | -18.2
CO[C@@]12[C@H](COC(N)=O)C/3=C(N1C[C@@H]4N[C@H]24)/C(=O)/C(=C(N)\C3=O)C [Mitomycin C] | -11.2
Clc1ccc(C(c2ccccc2Cl)C(Cl)Cl)cc1 (stereo unspecified) [Mitotane] | -92.3
NC(=O)c1ncn([C@@H]2O[C@H](CO)[C@@H](O)[C@H]2O)c1O [Mizoribine] | 18
O=C\1N(N\C=C1[N]2C=CN=N2)C3=NC=NC(=C3)N4CCOCC4 [Molidustat] | -58.6
CCOC(=O)C/1=C(C)/NC(=S)NC1C2=CC=CC(=C2)O (stereo unspecified) [Monastrol] | -52.1
CCOc1cc(N)c(Cl)cc1C(=O)NCC1CN(Cc2ccc(F)cc2)CCO1 (stereo unspecified) [Mosapride citrate] | -28.4
CC1(C)CNc2cc(NC(=O)c3cccnc3NCc3ccncc3)ccc21 [Motesanib] | 10.7
COc1c(N2C[C@@H]3CCCN[C@@H]3C2)c(F)cc2c(=O)c(C(=O)O)cn(C3CC3)c12.Cl.O [Moxifloxacin hydrochloride] | -9.48
OC1=CC2=C(C(=C1)O)C(=O)\C(=C(/O2)C3=CC(=C(O)C(=C3)O)O)O [Myricetin] | -26.3
COc1ccc(C(=O)N2CCN(C(=O)/C=C/c3ccc(Br)cc3)CC2)cc1 [NIBR-189] | -15.1
NC(=O)c1cc(F)cc2c1C(=O)N(C1CCN(C3CCC(F)(F)CC3)CC1)C2 [NMS-P118] | -18.7
Oc1nc(-c2ccc(C(F)(F)F)cc2)nc2c1CSCC2 [NVP-XAV-939] | -13.5
CC(C)NC(=O)N1CC[C@@H](C1)NC/2=N/C3=C(C=CC(=C3)F)N(CC(F)F)C4=C2C=C(Cl)C=C4 [NVS-PAK1-1] | -21.2
N=C(N)Nc1ccc(C(=O)Oc2ccc3cc(C(=N)N)ccc3c2)cc1 [Nafamostat mesilate] | -24.8
CC(C)(C)C(=O)CN1C(=O)[C@H](NC(=O)Nc2cccc(C(=O)O)c2)CN(C2CCCCC2)c2ccccc21 [Nastorazepide] | -4.67
CC(C)C1CCC(C(=O)N[C@H](Cc2ccccc2)C(=O)O)CC1 (stereo partly specified) [Nateglinide] | -11
CN1C(=O)N[C@H](Cc2c[nH]c3c(Cl)cccc23)C1=O [Necrostatin 2] | 15
CN1C(=O)C(Cc2c[nH]c3ccccc23)NC1=S (stereo unspecified) [Necrostatin-1] | -7.49
Cc1cccc(C)c1NC(=O)CN1CCCC1=O [Nefiracetam] | -20.6
NCC/1=C/NC(=S)N1[C@H]2CCC3=C(F)C=C(F)C=C3C2 [Nepicastat hydrochloride] | -46.6
CNC(=O)c1c(-c2ccc(F)cc2)oc2cc(N(CCO)[S+](C)(=O)[O-])c(C3CC3)cc12 [Nesbuvir] | -8.31
